Test results as given in patent publication US10245261B2, “Substituted indol-5-ol derivatives and their therapeutic applications” (NantBioScience, Inc., priority 2013, dated 2019).
Like-named read-outs stand apart in the source and are kept apart here.

What was measured:
BRK(h) = BRK(h) (Homo sapiens, UniProt Q13882); assay: KinaseProfiler kinase assay; format: biochemical
mTOR/FKBP12(h) = mTOR/FKBP12(h) (Homo sapiens, UniProt P42345); assay: KinaseProfiler kinase assay; format: biochemical
How it was run: (§1)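 Each enzyme was assayed radiometrically: 40 min room-temperature reaction with [γ-33P]ATP and 10 mM Mg acetate, acid-stopped, filtered, scintillation-counted.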

BTK(h) = BTK(h) (Homo sapiens, UniProt Q06187); assay: KinaseProfiler kinase assay; format: biochemical
How it was run: as §1

[1] = target: PI3 Kinase (p113α)(H1047R)/p85α)(m) (Mus musculus, UniProt P42337, H1047R); assay: KinaseProfiler kinase assay; format: biochemical
How it was run: as §1

TSSK1(h) = TSSK1(h) (Homo sapiens, UniProt Q9BXA7); assay: KinaseProfiler kinase assay; format: biochemical
How it was run: as §1

ULK3(h) = ULK3(h) (Homo sapiens, UniProt Q6PHR2); assay: KinaseProfiler kinase assay; format: biochemical
How it was run: as §1

HIPK2(h) = HIPK2(h) (Homo sapiens, UniProt Q9H2X6); assay: KinaseProfiler kinase assay; format: biochemical
How it was run: as §1

Met(D1246N)(h) = Met(D1246N)(h) (Homo sapiens, UniProt P08581, D1228N); assay: KinaseProfiler kinase assay; format: biochemical
How it was run: as §1

GCK(h) = GCK(h) (Homo sapiens, UniProt Q12851); assay: KinaseProfiler kinase assay; format: biochemical
[2] = system: NCI 60 cancer cell line panel; assay: NCI-60 DTP Human Tumor Cell Line Panel, SRB growth inhibition; format: cell-based; details: for GI50: Homo sapiens
Method: The human tumor cell lines of the cancer screening panel are grown in RPMI 1640 medium containing 5% fetal bovine serum and 2 mM L-glutamine. For a typical screening experiment, cells are inoculated into 96 well microtiter plates in 100 μL at plating densities ranging from 5,000 to 40,000 cells/well depending on the doubling time of individual cell lines. After cell inoculation, the microtiter plates are incubated at 37° C., 5% CO2, 95% air and 100% relative humidity for 24 h prior to addition of experimental drugs.
After 24 h, two plates of each cell line are fixed in situ with TCA, to represent a measurement of the cell population for each cell line at the time of drug addition (Tz). Experimental drugs are solubilized in dimethyl sulfoxide at 400-fold the desired final maximum test concentration and stored frozen prior to use. At the time of drug addition, an aliquot of frozen concentrate is thawed and diluted to twice the desired final maximum test concentration with complete medium containing 50 μg/ml gentamicin. Additional four, 10-fold or ½ log serial dilutions are made to provide a total of five drug concentrations plus control. Aliquots of 100 μl of these different drug dilutions are added to the appropriate microtiter wells already containing 100 μl of medium, resulting in the required final drug concentrations.
Following drug addition, the plates are incubated for an additional 48 h at 37° C., 5% CO2, 95% air, and 100% relative humidity. For adherent cells, the assay is terminated by the addition of cold TCA. Cells are fixed in situ by the gentle addition of 50 μl of cold 50% (w/v) TCA (final concentration, 10% TCA) and incubated for 60 minutes at 4° C. The supernatant is discarded, and the plates are washed five times with tap water and air dried. Sulforhodamine B (SRB) solution (100 μl) at 0.4% (w/v) in 1% acetic acid is added to each well, and plates are incubated for 10 minutes at room temperature. After staining, unbound dye is removed by washing five times with 1% acetic acid and the plates are air dried. Bound stain is subsequently solubilized with 10 mM trizma base, and the absorbance is read on an automated plate reader at a wavelength of 515 nm. For suspension cells, the methodology is the same except that the assay is terminated by fixing settled cells at the bottom of the wells by gently adding 50 μl of 80% TCA (final concentration, 16% TCA). Using the seven absorbance measurements [time zero, (Tz), control growth, (C), and test growth in the presence of drug at the five concentration levels (Ti)], the percentage growth is calculated at each of the drug concentrations levels. Percentage growth inhibition is calculated as: [(Ti−Tz)/(C−Tz)]×100 for concentrations for which Ti>/=Tz [(Ti−Tz)/Tz]×100 for concentrations for which Ti<Tz.
Three dose response parameters are calculated for each experimental agent.

Chain of BRK(h) (Q13882 whole entry): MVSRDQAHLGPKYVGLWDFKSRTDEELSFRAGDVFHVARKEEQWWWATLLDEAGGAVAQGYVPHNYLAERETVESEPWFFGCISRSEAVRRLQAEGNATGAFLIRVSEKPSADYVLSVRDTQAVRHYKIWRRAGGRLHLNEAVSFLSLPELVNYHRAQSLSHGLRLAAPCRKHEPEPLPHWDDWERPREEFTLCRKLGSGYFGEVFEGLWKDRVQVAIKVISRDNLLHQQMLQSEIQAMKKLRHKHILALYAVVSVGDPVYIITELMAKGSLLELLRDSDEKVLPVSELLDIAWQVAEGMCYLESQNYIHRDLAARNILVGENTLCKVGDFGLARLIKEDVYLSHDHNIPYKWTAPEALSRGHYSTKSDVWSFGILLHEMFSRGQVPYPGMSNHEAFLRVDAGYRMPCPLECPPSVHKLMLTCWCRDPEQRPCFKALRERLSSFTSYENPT
Chain of HIPK2(h) (Q9H2X6 whole entry): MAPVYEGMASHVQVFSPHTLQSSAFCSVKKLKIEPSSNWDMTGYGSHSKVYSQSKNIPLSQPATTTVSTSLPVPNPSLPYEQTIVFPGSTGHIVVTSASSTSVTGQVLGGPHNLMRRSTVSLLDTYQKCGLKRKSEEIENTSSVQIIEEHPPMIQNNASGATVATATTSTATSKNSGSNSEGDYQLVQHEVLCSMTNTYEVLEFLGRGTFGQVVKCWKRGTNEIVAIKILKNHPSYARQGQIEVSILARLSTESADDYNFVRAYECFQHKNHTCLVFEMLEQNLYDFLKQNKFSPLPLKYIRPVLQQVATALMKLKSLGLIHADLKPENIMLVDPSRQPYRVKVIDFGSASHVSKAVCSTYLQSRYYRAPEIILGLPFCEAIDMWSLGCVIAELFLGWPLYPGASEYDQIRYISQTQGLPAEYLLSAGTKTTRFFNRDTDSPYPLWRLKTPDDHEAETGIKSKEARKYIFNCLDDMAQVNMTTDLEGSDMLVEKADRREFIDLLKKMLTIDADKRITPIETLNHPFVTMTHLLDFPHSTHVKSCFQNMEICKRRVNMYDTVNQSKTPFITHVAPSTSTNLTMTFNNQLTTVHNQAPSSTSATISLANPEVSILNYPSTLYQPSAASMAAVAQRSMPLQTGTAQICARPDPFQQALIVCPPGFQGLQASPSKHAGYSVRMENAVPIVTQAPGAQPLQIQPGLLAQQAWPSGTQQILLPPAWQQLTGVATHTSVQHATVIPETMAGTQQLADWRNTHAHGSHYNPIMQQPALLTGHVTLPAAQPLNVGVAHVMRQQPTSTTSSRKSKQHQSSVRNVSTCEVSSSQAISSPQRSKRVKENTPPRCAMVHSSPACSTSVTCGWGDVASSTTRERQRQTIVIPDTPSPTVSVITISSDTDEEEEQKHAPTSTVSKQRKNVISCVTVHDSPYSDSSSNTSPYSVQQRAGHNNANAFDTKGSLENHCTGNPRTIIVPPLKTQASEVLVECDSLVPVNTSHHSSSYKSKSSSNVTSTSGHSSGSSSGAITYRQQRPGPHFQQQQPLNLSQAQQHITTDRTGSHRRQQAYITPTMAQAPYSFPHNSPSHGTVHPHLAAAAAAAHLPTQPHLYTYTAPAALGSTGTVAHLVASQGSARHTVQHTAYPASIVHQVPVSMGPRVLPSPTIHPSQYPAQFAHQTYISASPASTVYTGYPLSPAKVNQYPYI
Chain of mTOR/FKBP12(h) (P42345 1362-2549): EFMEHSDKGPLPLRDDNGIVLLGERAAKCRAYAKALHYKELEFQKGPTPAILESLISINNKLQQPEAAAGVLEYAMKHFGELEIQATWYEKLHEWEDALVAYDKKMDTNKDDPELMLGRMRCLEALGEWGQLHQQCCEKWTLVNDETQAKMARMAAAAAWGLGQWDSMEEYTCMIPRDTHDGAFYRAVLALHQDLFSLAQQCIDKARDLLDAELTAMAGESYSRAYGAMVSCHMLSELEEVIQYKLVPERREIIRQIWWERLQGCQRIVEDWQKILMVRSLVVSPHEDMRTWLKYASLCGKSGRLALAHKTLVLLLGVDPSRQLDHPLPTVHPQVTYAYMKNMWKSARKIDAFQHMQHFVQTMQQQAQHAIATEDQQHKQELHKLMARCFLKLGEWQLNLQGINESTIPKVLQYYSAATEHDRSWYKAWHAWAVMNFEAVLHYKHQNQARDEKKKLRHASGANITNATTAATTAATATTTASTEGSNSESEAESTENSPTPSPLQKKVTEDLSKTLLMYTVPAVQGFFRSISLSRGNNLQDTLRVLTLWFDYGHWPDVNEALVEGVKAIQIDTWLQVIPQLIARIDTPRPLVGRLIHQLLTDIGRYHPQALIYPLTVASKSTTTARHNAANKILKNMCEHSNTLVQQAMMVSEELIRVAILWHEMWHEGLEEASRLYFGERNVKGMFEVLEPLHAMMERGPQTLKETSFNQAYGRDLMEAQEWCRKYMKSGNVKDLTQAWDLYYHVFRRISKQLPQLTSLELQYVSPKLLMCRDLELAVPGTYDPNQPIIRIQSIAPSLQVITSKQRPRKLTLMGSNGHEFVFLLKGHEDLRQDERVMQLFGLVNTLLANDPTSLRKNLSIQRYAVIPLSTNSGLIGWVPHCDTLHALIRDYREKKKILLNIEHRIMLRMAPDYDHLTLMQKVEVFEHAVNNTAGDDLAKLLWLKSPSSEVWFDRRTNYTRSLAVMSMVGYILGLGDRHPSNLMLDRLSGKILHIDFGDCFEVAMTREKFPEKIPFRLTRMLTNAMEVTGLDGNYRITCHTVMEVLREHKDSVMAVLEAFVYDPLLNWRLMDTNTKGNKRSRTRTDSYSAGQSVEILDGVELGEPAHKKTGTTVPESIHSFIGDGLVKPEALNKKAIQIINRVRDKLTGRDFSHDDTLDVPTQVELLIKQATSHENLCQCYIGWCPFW
Chain of PI3 Kinase (p113α)(H1047R)/p85α)(m) (P42337 whole entry H1047R): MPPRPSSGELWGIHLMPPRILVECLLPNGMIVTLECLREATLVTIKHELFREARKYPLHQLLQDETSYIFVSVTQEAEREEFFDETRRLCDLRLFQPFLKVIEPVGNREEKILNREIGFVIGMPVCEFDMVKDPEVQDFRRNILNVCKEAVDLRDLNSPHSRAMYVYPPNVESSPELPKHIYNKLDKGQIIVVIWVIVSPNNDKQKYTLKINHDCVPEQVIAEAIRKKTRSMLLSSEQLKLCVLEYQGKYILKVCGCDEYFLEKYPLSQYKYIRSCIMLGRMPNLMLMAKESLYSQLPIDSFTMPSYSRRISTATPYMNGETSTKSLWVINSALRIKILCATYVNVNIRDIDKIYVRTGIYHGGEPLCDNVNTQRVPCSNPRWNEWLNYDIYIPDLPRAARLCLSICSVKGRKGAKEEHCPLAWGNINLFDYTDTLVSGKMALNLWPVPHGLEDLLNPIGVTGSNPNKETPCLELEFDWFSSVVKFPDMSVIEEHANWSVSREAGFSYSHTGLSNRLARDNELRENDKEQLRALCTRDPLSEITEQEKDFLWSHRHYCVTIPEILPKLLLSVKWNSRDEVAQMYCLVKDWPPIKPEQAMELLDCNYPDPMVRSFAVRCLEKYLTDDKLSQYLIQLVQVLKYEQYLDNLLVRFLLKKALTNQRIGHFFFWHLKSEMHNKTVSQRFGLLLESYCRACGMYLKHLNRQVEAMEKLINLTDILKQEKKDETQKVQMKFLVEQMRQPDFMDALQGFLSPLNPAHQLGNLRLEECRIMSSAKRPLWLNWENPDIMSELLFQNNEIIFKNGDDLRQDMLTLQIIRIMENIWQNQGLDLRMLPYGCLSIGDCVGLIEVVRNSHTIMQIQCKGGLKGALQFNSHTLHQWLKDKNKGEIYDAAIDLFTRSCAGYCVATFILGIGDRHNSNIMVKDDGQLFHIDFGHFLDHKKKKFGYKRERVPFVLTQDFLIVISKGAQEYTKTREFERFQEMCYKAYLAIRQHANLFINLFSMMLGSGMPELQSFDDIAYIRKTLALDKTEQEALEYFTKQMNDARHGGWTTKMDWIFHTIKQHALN
Chain of PI3 Kinase (p113α)(H1047R)/p85α)(m) (P26450 whole entry partner): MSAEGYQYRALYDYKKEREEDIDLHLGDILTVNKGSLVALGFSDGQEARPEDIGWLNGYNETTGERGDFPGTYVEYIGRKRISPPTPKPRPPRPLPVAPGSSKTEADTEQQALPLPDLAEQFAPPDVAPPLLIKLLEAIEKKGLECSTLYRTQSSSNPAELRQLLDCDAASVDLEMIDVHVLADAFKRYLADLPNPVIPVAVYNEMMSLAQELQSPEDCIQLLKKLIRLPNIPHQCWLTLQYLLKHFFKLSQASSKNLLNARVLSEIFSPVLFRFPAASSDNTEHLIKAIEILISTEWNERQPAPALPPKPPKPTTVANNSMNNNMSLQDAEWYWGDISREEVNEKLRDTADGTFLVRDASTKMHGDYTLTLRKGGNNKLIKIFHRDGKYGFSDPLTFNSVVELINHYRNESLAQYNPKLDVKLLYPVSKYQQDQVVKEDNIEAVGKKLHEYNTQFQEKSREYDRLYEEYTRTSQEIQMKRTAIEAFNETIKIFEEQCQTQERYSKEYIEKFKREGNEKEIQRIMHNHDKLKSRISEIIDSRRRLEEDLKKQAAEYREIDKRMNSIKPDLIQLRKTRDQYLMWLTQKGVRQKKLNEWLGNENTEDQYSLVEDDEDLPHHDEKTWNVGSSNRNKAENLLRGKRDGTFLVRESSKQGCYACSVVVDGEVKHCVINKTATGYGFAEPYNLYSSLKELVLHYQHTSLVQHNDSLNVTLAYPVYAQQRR
Chain of ULK3(h) (Q6PHR2 whole entry): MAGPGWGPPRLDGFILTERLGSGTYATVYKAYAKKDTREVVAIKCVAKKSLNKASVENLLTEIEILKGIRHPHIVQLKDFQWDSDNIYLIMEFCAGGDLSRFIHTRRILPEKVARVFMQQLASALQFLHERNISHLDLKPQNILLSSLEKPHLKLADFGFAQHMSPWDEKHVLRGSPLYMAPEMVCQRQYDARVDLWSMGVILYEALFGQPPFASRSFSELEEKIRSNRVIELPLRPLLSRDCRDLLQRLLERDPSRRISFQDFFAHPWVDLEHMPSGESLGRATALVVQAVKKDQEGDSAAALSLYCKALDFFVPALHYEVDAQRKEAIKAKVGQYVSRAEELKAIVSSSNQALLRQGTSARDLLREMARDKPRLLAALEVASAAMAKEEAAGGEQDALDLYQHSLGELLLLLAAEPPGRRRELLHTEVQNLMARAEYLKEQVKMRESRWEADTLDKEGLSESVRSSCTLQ

Cc1cc2c(F)c(Oc3nc(Nc4cc(C5CC5)[nH]n4)cc(N4CCN(C)CC4)n3)ccc2[nH]1 [Compound 10]
inhibition at 0.1 µM (BRK(h)): 54% | inhibition at 0.1 µM (mTOR/FKBP12(h)): -14% | inhibition at 0.1 µM (BTK(h)): 50% | inhibition at 0.1 µM [1]: -1% | inhibition at 0.1 µM (TSSK1(h)): 4% | inhibition at 0.1 µM (ULK3(h)): 86% | inhibition at 0.1 µM (HIPK2(h)): -2% | inhibition at 0.1 µM (Met(D1246N)(h)): 80% | inhibition at 0.1 µM (GCK(h)): 79%

Cc1cc2c(F)c(Oc3nc(Nc4cc(C5CC5)[nH]n4)cc(N4CCNCC4)n3)ccc2[nH]1 [Compound 11, N-(5-cyclopropyl-1H-pyrazol-3-yl)-2-((4-fluoro-2-methyl-1H-indol-5-yl)oxy)-6-(piperazin-1-yl)pyrimidin-4-amine]
inhibition at 0.1 µM (BRK(h)): 73% | inhibition at 0.1 µM (mTOR/FKBP12(h)): -9% | inhibition at 0.1 µM (BTK(h)): 71% | inhibition at 0.1 µM [1]: 0% | inhibition at 0.1 µM (TSSK1(h)): 3% | inhibition at 0.1 µM (ULK3(h)): 84% | inhibition at 0.1 µM (HIPK2(h)): 0% | inhibition at 0.1 µM (Met(D1246N)(h)): 84% | inhibition at 0.1 µM (GCK(h)): 85%

C/C=C/c1cc(Nc2cc(N3CCN(C)CC3)nc(Oc3ccc4[nH]c(C)cc4c3F)n2)n[nH]1 [Compound 53]
GI50 ([2]; 60 cell, range over the NCI 60 cell lines (Table 6), read-out: growth inhibition (GI50)): 10 to 1890 nM | GI50 ([2]; 786-0, Renal Cancer, 786-0, read-out: GI50): 97.2 nM | GI50 ([2]; A498, Renal Cancer, A498, read-out: GI50): < 10 nM | GI50 ([2]; A549, Non-Small Cell Lung Cancer, A549/ATCC, read-out: GI50): 388 nM | GI50 ([2]; ACHN, Renal Cancer, ACHN, read-out: GI50): 190 nM | GI50 ([2]; BT-549, Breast Cancer, BT-549, read-out: GI50): 268 nM | GI50 ([2]; CAKI-1, Renal Cancer, CAKI-1, read-out: GI50): 901 nM | GI50 ([2]; CCRF-CEM, Leukemia, CCRF-CEM, read-out: GI50): < 10 nM | GI50 ([2]; COLO 205, Colon Cancer, COLO 205, read-out: GI50): 85.9 nM | GI50 ([2]; DU-145, Prostate Cancer, DU-145, read-out: GI50): 288 nM | GI50 ([2]; HCC 2998, Colon Cancer, HCC-2998, read-out: GI50): 1420 nM | GI50 ([2]; HCT-15, Colon Cancer, HCT-15, read-out: GI50): 397 nM | GI50 ([2]; HCT-116, Colon Cancer, HCT-116, read-out: GI50): 40.1 nM | GI50 ([2]; HL-60, Leukemia, HL-60(TB), read-out: GI50): 1430 nM | GI50 ([2]; HOP-62, Non-Small Cell Lung Cancer, HOP-62, read-out: GI50): 91.4 nM | GI50 ([2]; HOP-92, Non-Small Cell Lung Cancer, HOP-92, read-out: GI50): 22.4 nM | GI50 ([2]; HT-29, Colon Cancer, HT29, read-out: GI50): 96.3 nM | GI50 ([2]; Hs-578T, Breast Cancer, HS 578T, read-out: GI50): 13 nM | GI50 ([2]; IGROV-1, Ovarian Cancer, IGROV1, read-out: GI50): 47.2 nM | GI50 ([2]; K562, Leukemia, K-562, read-out: GI50): < 10 nM | GI50 ([2]; KM12, Colon Cancer, KM12, read-out: GI50): < 10 nM | GI50 ([2]; LOX IMVI, Melanoma, LOX IMVI, read-out: GI50): 34.3 nM | GI50 ([2]; MCF7, Breast Cancer, MCF7, read-out: GI50): < 10 nM | GI50 ([2]; MDA-MB-231, Breast Cancer, MDA-MB-231/ATCC, read-out: GI50): 227 nM | GI50 ([2]; MDA-MB-435, Melanoma, MDA-MB-435, read-out: GI50): 354 nM | GI50 ([2]; MDA-MB-468, Breast Cancer, MDA-MB-468, read-out: GI50): 39.2 nM | GI50 ([2]; MOLT-4, Leukemia, MOLT-4, read-out: GI50): 48.1 nM | GI50 ([2]; Malme-3M, Melanoma, MALME-3M, read-out: GI50): 132 nM | GI50 ([2]; Melanoma, M14, read-out: GI50): 166 nM | GI50 ([2]; NCI-H23, Non-Small Cell Lung Cancer, NCI-H23, read-out: GI50): 153 nM | GI50 ([2]; NCI-H226, Non-Small Cell Lung Cancer, NCI-H226, read-out: GI50): < 10 nM | GI50 ([2]; NCI-H322M, Non-Small Cell Lung Cancer, NCI-H322M, read-out: GI50): 915 nM | GI50 ([2]; NCI-H460, Non-Small Cell Lung Cancer, NCI-H460, read-out: GI50): 86.9 nM | GI50 ([2]; NCI-H522, Non-Small Cell Lung Cancer, NCI-H522, read-out: GI50): 72.2 nM | GI50 ([2]; NCI/ADR-RES, Ovarian Cancer, NCI/ADR-RES, read-out: GI50): 1540 nM | GI50 ([2]; OVCAR-3, Ovarian Cancer, OVCAR-3, read-out: GI50): 1070 nM | GI50 ([2]; OVCAR-4, Ovarian Cancer, OVCAR-4, read-out: GI50): 1550 nM | GI50 ([2]; OVCAR-5, Ovarian Cancer, OVCAR-5, read-out: GI50): 171 nM | GI50 ([2]; OVCAR-8, Ovarian Cancer, OVCAR-8, read-out: GI50): 187 nM | GI50 ([2]; Prostate Cancer, PC-3, read-out: GI50): 1270 nM | GI50 ([2]; RPMI-8226, Leukemia, RPMI-8226, read-out: GI50): 1890 nM | GI50 ([2]; RXF 393, Renal Cancer, RXF 393, read-out: GI50): 18.4 nM | GI50 ([2]; SF530, CNS Cancer, SF-530, read-out: GI50): 65.8 nM | GI50 ([2]; SF-268, CNS Cancer, SF-268, read-out: GI50): 87.7 nM | GI50 ([2]; SF-295, CNS Cancer, SF-295, read-out: GI50): 91 nM | GI50 ([2]; SK-MEL-2, Melanoma, SK-MEL-2, read-out: GI50): 1420 nM | GI50 ([2]; SK-MEL-5, Melanoma, SK-MEL-5, read-out: GI50): 1270 nM | GI50 ([2]; SK-MEL-28, Melanoma, SK-MEL-28, read-out: GI50): 342 nM | GI50 ([2]; SK-OV-3, Ovarian Cancer, SK-OV-3, read-out: GI50): 421 nM | GI50 ([2]; SN12C, Renal Cancer, SN12C, read-out: GI50): 48.7 nM | GI50 ([2]; SNB-19, CNS Cancer, SNB-19, read-out: GI50): 205 nM | GI50 ([2]; SNB-75, CNS Cancer, SNB-75, read-out: GI50): 15.8 nM | GI50 ([2]; SW-620, Colon Cancer, SW-620, read-out: GI50): 44.1 nM | GI50 ([2]; T47D, Breast Cancer, T-47D, read-out: GI50): 1030 nM | GI50 ([2]; U-251, CNS Cancer, U251, read-out: GI50): 103 nM | GI50 ([2]; UACC-62, Melanoma, UACC-62, read-out: GI50): 502 nM | GI50 ([2]; UACC-257, Melanoma, UACC-257, read-out: GI50): 388 nM | GI50 ([2]; UO-31, Renal Cancer, UO-31, read-out: GI50): 81 nM

C/C=C/c1cc(Nc2cc(N3CCN(C)CC3)nc(Oc3cc(F)c4[nH]c(C)cc4c3F)n2)n[nH]1 [NTW-3456]
antiproliferative activity ([2]; cell lines from the NCI 60 panel): Anti-proliferative activity
